Measurements: US12448388B2, “PRMT5 inhibitors and uses thereof” (Gilead Sciences, Inc., priority 2023, dated 2025)
Like-named read-outs stand apart in the source and are kept apart here.

System: HCT116 MTAP-deleted cell lines
Assay: Cell viability assay (CellTiter-Glo, 7 days), HCT116 MTAP-deleted
Type: cell-based
Details: Homo sapiens, HCT-116, HCT116 MTAP-deleted, class symbols, read-out: CC50
Procedure, shortened: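 Each PRMT5 inhibitor was tested as a dose response alongside tool compounds on the same plate. Incubation ran 7 days at 37 °C under 5% CO2, after which CellTiter-Glo luminescence was recorded and CC50 calculated.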

CN(C(=O)c1cc2c(cc1Cl)nc(N)c1cncn12)[C@@H]1COc2cc(C(C)(F)F)ccc21 [Ff-508, (S)-4-amino-7-chloro-N-(6-(1,1-difluoroethyl)-2,3-dihydrobenzofuran-3-yl)-N-methylimidazo[1,5-a]quinoxaline-8-carboxamide]
CC50 (cell viability assay): < 0.1 µM

Nc1nc2cc(F)c(C(=O)N(Cc3ccc(C(F)(F)F)cn3)c3ccccc3)cc2n2cncc12 [Ff-277, 4-amino-7-fluoro-N-phenyl-N-((5-(trifluoromethyl)pyridin-2-yl)methyl)imidazo[1,5-a]quinoxaline-8-carboxamide]
CC50 (cell viability): < 0.1 µM

CN(C(=O)c1cc2c(cc1F)nc(N)c1cncn12)[C@@H]1COc2cc(-c3cnc(C(F)(F)F)s3)ccc21 [Ff-232, (S)-4-amino-7-fluoro-N-methyl-N-(6-(2-(trifluoromethyl)thiazol-5-yl)-2,3-dihydrobenzofuran-3-yl)imidazo[1,5-a]quinoxaline-8-carboxamide]
CC50 (cell viability): < 0.1 µM

Cn1cc(N(Cc2ccc(-c3cnn(C(F)F)c3)cc2F)C(=O)c2cc3c(cc2F)nc(N)c2cncn23)cn1 [Ff-221, 4-amino-N-(4-(1-(difluoromethyl)-1H-pyrazol-4-yl)-2-fluorobenzyl)-7-fluoro-N-(1-methyl-1H-pyrazol-4-yl)imidazo[1,5-a]quinoxaline-8-carboxamide]
CC50 (cell viability): < 0.1 µM

C[C@@H]1OCCN(C(=O)c2cc3c(cc2F)nc(N)c2cncn23)[C@H]1c1ccc(C(F)(F)F)cn1 [Ff-132, (4-amino-7-fluoroimidazo[1,5-a]quinoxalin-8-yl)((2S,3S)-2-methyl-3-(5-(trifluoromethyl)pyridin-2-yl)morpholino)methanone]
CC50 (cell viability): < 0.1 µM

Nc1nc2cc(F)c(C(=O)N3CCN(C4COC4)CC3c3ccc(C(F)(F)F)cn3)cc2n2cncc12 (centres unmarked) [Ff-140, (4-amino-7-fluoroimidazo[1,5-a]quinoxalin-8-yl)(4-(oxetan-3-yl)-2-(5-(trifluoromethyl)pyridin-2-yl)piperazin-1-yl)methanone]
CC50 (cell viability): 0.1 to 1 µM

CN(Cc1ccc(Br)c(C(F)F)c1)C(=O)c1cc2c(cc1F)nc(N)c1cncn12 [Ff-596, 4-amino-N-(4-bromo-3-(difluoromethyl)benzyl)-7-fluoro-N-methylimidazo[1,5-a]quinoxaline-8-carboxamide]
CC50 (cell viability assay): 0.1 to 1 µM

CN(C(=O)c1cc2c(cc1F)nc(N)c1cncn12)[C@H]1c2ccc(Br)cc2[C@H]2C[C@H]21 [Ff-313, 4-amino-N-((1aS,6R,6aR)-3-bromo-1,1a,6,6a-tetrahydrocyclopropa[a]inden-6-yl)-7-fluoro-N-methylimidazo[1,5-a]quinoxaline-8-carboxamide]
CC50 (cell viability): 0.1 to 1 µM

C[C@@H]1C[C@@H]2CCc3cc(C(F)(F)F)ccc3[C@@H]2N(C(=O)c2cc3c(cc2F)nc(N)c2cncn23)C1 (racemic) [Ff-322, Rac-(4-amino-7-fluoroimidazo[1,5-a]quinoxalin-8-yl)((3R,4aS,10bR)-3-methyl-8-(trifluoromethyl)-3,4,4a,5,6,10b-hexahydrobenzo[h]quinolin-1(2H)-yl)methanone]
CC50 (cell viability): < 0.1 µM

CN(Cc1ccn(-c2ccccc2)n1)C(=O)c1cc2c(cc1F)nc(N)c1cncn12 [Ff-454, 4-amino-7-fluoro-N-methyl-N-((1-phenyl-1H-pyrazol-3-yl)methyl)imidazo[1,5-a]quinoxaline-8-carboxamide]
CC50 (cell viability assay): 0.1 to 1 µM

CN(C(=O)c1cc2c(cc1F)nc(N)c1cncn12)[C@@H]1COc2cc(C3CC3)ccc21 [Ff-546, (S)-4-amino-N-(6-cyclopropyl-2,3-dihydrobenzofuran-3-yl)-7-fluoro-N-methylimidazo[1,5-a]quinoxaline-8-carboxamide]
CC50 (cell viability assay): < 0.1 µM

Nc1nc2cc(Cl)c(C(=O)N3CC[C@H]4C[C@@H]3c3ccc(Cl)cc34)cc2n2cncc12 [Ff-599, (4-amino-7-chloroimidazo[1,5-a]quinoxalin-8-yl)((1R,5S)-7-chloro-1,3,4,5-tetrahydro-2H-1,5-methanobenzo[c]azepin-2-yl)methanone]
CC50 (cell viability assay): < 0.1 µM

CN(C(=O)c1cc2c(cc1F)nc(N)c1cncn12)[C@@H]1CCc2cc(C(F)(F)F)ccc21 (single isomer, unassigned) [Ff-398]
CC50 (cell viability assay): < 0.1 µM

CN(C(=O)c1cc2c(cc1F)nc(N)c1cncn12)[C@@H]1COc2cc(C(F)F)ccc21 [Ff-576, (S)-4-amino-N-(6-(difluoromethyl)-2,3-dihydrobenzofuran-3-yl)-7-fluoro-N-methylimidazo[1,5-a]quinoxaline-8-carboxamide]
CC50 (cell viability assay): 0.1 to 1 µM

Nc1nc2cc(F)c(C(=O)N3CCO[C@@H]4Cc5cc(OC(F)(F)F)c(F)cc5[C@@H]43)cc2n2cncc12 [Ff-176, (4-amino-7-fluoroimidazo[1,5-a]quinoxalin-8-yl)((4aS,9aR)-6-fluoro-7-(trifluoromethoxy)-2,3,9,9a-tetrahydroindeno[2,1-b][1,4]oxazin-4(4aH)-yl)methanone]
CC50 (cell viability): < 0.1 µM

Cc1ncc2c(N)nc3cc(F)c(C(=O)N(C)[C@@H]4CCc5nc(C(F)(F)F)ccc54)cc3n12 [Ff-317, (R)-4-amino-7-fluoro-N,1-dimethyl-N-(2-(trifluoromethyl)-6,7-dihydro-5H-cyclopenta[b]pyridin-5-yl)imidazo[1,5-a]quinoxaline-8-carboxamide]
CC50 (cell viability): 0.1 to 1 µM

CN(C(=O)C1CC1)N(Cc1cc(F)c(F)cc1F)C(=O)c1cc2c(cc1F)nc(N)c1cncn12 [Fa-8, 4-amino-N′-(cyclopropanecarbonyl)-7-fluoro-N′-methyl-N-(2,4,5-trifluorobenzyl)imidazo[1,5-a]quinoxaline-8-carbohydrazide]
CC50 (cell viability): < 0.1 µM

C[C@H]1OC[C@@H](N(C)C(=O)c2ccc3nc(N)c4cncn4c3c2)c2ccc(C(F)(F)F)cc21 (racemic) [Ff-42, Cis-4-amino-N-methyl-N-(1-methyl-7-(trifluoromethyl)isochroman-4-yl)imidazo[1,5-a]quinoxaline-8-carboxamide]
CC50 (cell viability): < 0.1 µM

Cc1ncn2c1c(N)nc1cnc(C(=O)N3C[C@H](C)C[C@@H]4Oc5c(ccc(C(F)(F)F)c5F)[C@@H]43)cc12 [Fg-63, (4-amino-3-methylimidazo[1,5-a]pyrido[3,4-e]pyrazin-8-yl)((3R,4aS,9bS)-6-fluoro-3-methyl-7-(trifluoromethyl)-3,4,4a,9b-tetrahydrobenzofuro[3,2-b]pyridin-1(2H)-yl)methanone]
CC50 (cell viability assay): < 0.1 µM

Nc1nc2cc(F)c(C(=O)N3CCO[C@H]4Cc5cc(Br)ccc5[C@H]43)cc2n2cncc12 (single isomer, unassigned) [Ff-75]
CC50 (cell viability): 0.1 to 1 µM

Cc1ncc2c(N)nc3cnc(C(=O)N4CCC5(CC5)[C@@H]5Oc6cc(C(F)(F)F)ccc6[C@@H]54)cc3n12 [Ff-679, (4-amino-1-methylimidazo[1,5-a]pyrido[3,4-e]pyrazin-8-yl)((4aS,9bS)-7-(trifluoromethyl)-2,3,4a,9b-tetrahydro-1H-spiro[benzofuro[3,2-b]pyridine-4,1′-cyclopropan]-1-yl)methanone]
CC50 (cell viability assay): < 0.1 µM

CCN(C(=O)c1cc2c(cc1F)nc(N)c1cncn12)[C@H](C)c1ncc(C(F)(F)F)cc1F [Ff-538, (R)-4-amino-N-ethyl-7-fluoro-N-(1-(3-fluoro-5-(trifluoromethyl)pyridin-2-yl)ethyl)imidazo[1,5-a]quinoxaline-8-carboxamide]
CC50 (cell viability assay): < 0.1 µM

CN(C(=O)c1cc2c(cc1F)nc(N)c1cncn12)C1CCCc2cc(C(F)(F)F)ccc21 (centres unmarked) [Ff-430, 4-amino-7-fluoro-N-methyl-N-[6-(trifluoromethyl)tetralin-1-yl]imidazo[1,5-a]quinoxaline-8-carboxamide]
CC50 (cell viability assay): 0.1 to 1 µM
